Patent EP4740965A1, “PHARMACEUTICAL COMPOSITION OF COMPOUND FOR INHIBITING AND DEGRADING IRAK4, AND USE THEREOF IN MEDICINE” (Xizang Haisco Pharmaceutical Co., Ltd., priority 2023, dated 2025)

Assays:
[1] = target: T1, hERG potassium ion channel (Homo sapiens, UniProt Q12809); experiment: Effect on hERG potassium ion channel, manual whole cell patch-clamp in CHO cells; assay type: cell-based; conditions: hamster, inhibitory effect on hERG potassium channel current
T1 construct: expressed in transfected cells
Text: Test example 3. Test of effect on hERG potassium ion channel
Experimental platform: electrophysiological manual patch-clamp system
Cell line: Chinese hamster ovary (CHO) cell line stably expressing hERG potassium ion channel
Experimental method: In CHO (Chinese Hamster Ovary) cells stably expressing hERG potassium channel, whole cell patch-clamp technique was used to record hERG potassium channel current at room temperature. The glass microelectrode was made of a glass electrode blank (BF150-86-10, Sutter) by a puller. The tip resistance after filling the liquid in the electrode was about 2-5 MΩ. The glass microelectrode can be connected to the patch-clamp amplifier by inserting the glass microelectrode into an amplifier probe. The clamping voltage and data recording were controlled and recorded by the pClamp 10 software through a computer. The sampling frequency was 10 kHz, and the filtering frequency was 2 kHz. […]
Compound IC50 was calculated using GraphPad Prism 5 software by fitting according to the following equation: Y = Bottom + (Top−Bottom)/(1+10^(∧)((LogIC50−X)*HillSlope)) [formula] where X represents the Log value of the tested concentration of the test sample, Y represents the inhibition percentage at the corresponding concentration, and Bottom and Top represent the minimum and maximum inhibition percentage, respectively. […]

IRAK4 = target: T2, IRAK4 (Homo sapiens, UniProt Q9NWZ3); experiment: IRAK4 degradation activity in hPBMC cells (24 hours), automated western blot; assay type: cell-based; conditions: IRAK4 protein degradation in hPBMC cells
T2 construct: endogenous in cells; host or cells: human peripheral blood mononuclear cells (hPBMC) from healthy volunteers
T2 sequence (Q9NWZ3 1-460): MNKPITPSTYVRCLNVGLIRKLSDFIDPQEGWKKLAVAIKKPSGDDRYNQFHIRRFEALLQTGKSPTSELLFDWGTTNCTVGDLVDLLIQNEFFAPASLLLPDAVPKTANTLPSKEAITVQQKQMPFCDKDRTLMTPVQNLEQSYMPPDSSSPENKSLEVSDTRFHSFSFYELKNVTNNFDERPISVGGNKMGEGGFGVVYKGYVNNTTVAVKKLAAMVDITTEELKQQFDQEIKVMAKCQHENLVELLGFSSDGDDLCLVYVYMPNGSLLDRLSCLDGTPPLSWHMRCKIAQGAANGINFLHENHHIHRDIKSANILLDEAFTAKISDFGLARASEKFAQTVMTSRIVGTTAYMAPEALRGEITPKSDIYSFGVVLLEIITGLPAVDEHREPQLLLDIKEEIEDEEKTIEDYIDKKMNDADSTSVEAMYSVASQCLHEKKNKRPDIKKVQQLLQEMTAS
Description: Test example 1: Study on IRAK4 degradation activity in hPBMC cells (24 hours)
hPBMC cells are human peripheral blood mononuclear cells. Peripheral venous blood was taken from healthy volunteers, and hPBMCs were isolated using Ficoll density gradient centrifugation (Ficoll-PaqueTM PLUS 1.077, GE, Cat. 17-1140-02). Culture conditions: RPMI-1640 + 10% FBS + 1% penicillin-streptomycin solution. The cells were cultured in an incubator at 37°C and 5% CO2. The cells were plated in a 24-well plate at 1 × 10^6 cells/well. After plating, compounds at different concentrations were added, and the cells were cultured in an incubator at 37°C and 5% CO2 for 24 hours. After the culture was completed, the cells were collected, and RIPA lysis buffer (beyotime, Cat. P0013B) was added. […] The protein sample of the supernatant was collected, the protein was quantified using a BCA kit (Beyotime, Cat. P0009), and then the protein was diluted to 1 mg/mL. The expression of IRAK4 (CST, Cat. 4363S) and the internal reference cofilin (CST, Cat. 5175S) were detected using a fully automated western blot quantitative analyser (Proteinsimple). The expression level of IRAK4 relative to the internal reference was calculated using compass software. […] An IRAK4 degradation-drug concentration curve was fit using Graphpad Prism 8 software, and the DC50 was calculated. […]

[2] = Pharmacokinetic test in mice; assay type: in vivo, ICR mice; conditions: mouse, po; plasma of mice, i.g. (10 mg/kg)
Description: Test example 2: Pharmacokinetic test in mice
Experimental animals: Male ICR mice, about 25 g, 6 mice/compound, purchased from Chengdu Ddossy Experimental Animals Co., Ltd.
Test design: On the day of the experiment, 6 ICR mice were randomly grouped according to their body weights. The animals were fasted with water available for 12 to 14 h one day before the administration, and were fed 4 h after the administration. Table 2.1 Administration information
Before and after the administration, 0.15 mL of blood was taken from the orbit of the animals under isoflurane anaesthesia and placed in an EDTAK2 centrifuge tube. The blood was centrifuged at 5000 rpm and 4°C for 10 min to collect plasma. The blood collection time points for the intravenous administration group and intragastric administration group were 0 min, 5 min, 15 min, 30 min, 1 h, 2 h, 4 h, 7 h and 24 h. Before analysis and detection, all samples were stored at - 60°C. The samples were analysed quantitatively by LC-MS/MS. Table 2.2 Pharmacokinetic parameters of compounds of the present invention in plasma of mice

T1 sequence (Q12809 whole entry): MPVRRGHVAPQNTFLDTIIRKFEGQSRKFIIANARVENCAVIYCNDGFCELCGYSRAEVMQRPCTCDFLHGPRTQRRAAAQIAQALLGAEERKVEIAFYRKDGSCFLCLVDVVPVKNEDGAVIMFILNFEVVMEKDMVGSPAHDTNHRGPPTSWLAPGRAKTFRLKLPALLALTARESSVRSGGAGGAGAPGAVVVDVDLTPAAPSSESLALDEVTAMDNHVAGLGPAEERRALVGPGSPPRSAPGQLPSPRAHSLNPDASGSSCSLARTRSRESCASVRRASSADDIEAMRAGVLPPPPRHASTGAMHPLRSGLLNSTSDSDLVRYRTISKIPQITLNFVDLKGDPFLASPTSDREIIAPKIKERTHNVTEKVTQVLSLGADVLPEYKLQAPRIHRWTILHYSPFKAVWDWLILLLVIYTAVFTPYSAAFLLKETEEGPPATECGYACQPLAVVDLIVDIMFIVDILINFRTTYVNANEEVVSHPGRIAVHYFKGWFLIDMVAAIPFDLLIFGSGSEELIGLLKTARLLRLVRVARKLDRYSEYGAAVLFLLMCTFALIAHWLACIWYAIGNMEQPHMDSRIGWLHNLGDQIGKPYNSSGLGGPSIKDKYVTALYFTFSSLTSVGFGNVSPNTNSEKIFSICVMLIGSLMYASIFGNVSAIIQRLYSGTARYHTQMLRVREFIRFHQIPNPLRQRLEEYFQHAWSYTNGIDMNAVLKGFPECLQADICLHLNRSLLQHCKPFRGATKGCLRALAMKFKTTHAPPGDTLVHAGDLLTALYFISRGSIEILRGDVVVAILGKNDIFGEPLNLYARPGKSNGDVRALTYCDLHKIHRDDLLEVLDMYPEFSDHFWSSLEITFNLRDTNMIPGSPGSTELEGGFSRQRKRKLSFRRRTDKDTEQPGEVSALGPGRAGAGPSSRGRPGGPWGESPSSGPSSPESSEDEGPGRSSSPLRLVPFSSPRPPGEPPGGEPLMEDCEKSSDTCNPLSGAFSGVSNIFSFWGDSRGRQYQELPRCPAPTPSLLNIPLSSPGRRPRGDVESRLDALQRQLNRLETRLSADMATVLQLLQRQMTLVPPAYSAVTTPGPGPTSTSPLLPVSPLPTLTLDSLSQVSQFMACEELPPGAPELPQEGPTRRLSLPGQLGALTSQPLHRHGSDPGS

| Structure (SMILES) | IC50 [1] | DC50 (IRAK4) | AUC(0-t) at 24 h [2] |
| --- | --- | --- | --- |
| Cn1nc(C2CCC(=O)NC2=O)c2cccc(C#CCO[C@@H]3CCN(C[C@H]4CC[C@H](n5cc(NC(=O)c6cnn7ccc(N8CCO[C@H](CO)C8)nc67)c(C(F)F)n5)CC4)C[C@@H]3F)c21 (single isomer, unassigned) [Chiral isomer 1 of compound 20] | > 40000 nM | < 20 nM | – |
| Cn1nc(C2CCC(=O)NC2=O)c2cccc(C#CCO[C@@H]3CCN(C[C@H]4CC[C@H](n5cc(NC(=O)c6cnn7ccc(N8CCO[C@H](CO)C8)nc67)c(C(F)F)n5)CC4)C[C@@H]3F)c21 (single isomer, unassigned) [Chiral isomer 2 of compound 20] | – | < 20 nM | – |
| Cn1c(=O)n(C2CCC(=O)NC2=O)c2cccc(C#CCOC3CCN(C[C@H]4CC[C@H](n5cc(NC(=O)c6cnn7ccc(N8C[C@H]9C[C@@H]8CO9)nc67)c(C(F)F)n5)CC4)CC3)c21 (stereo partly shown) [Control compound 1] | – | – | 2320 ± 146 ng·h/mL |
